IC50 and EC50 data for twelve molecules are collected here from patent US7521442B2, “Cyclopropyl fused indolobenzazepine HCV NS5B inhibitors” (Bristol-Myers Squibb Company, priority 2006, dated 2009).

SMILES strings stand for the structures. Where two headings read alike, the source gives them in different places.

The target in test [1] is T1, HCV NS5B RdRp genotype 1b (Hepatitis C virus genotype 1b, UniProt Q9WMX2).
T1 construct: The protein was expressed with an 18 amino acid C-terminal truncation to enhance the solubility; made in house; host or cells: E. coli BL21(DE3), pET21a
T1 sequence (Q9WMX2 2420-2992): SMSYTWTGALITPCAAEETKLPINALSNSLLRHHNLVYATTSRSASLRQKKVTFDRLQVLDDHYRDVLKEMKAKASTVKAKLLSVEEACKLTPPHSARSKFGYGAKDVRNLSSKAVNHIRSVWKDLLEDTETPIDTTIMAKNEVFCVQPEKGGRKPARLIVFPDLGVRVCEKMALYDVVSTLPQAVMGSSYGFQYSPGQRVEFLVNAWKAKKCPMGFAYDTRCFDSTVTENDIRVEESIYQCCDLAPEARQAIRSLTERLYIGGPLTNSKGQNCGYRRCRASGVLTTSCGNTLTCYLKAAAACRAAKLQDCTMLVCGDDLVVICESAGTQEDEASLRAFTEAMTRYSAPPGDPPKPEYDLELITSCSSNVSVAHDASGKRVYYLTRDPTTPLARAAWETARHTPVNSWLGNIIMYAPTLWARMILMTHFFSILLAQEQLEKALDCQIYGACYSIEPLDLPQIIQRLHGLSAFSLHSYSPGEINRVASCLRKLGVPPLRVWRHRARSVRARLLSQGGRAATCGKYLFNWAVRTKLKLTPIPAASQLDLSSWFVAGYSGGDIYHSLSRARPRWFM
The test is described as follows: Modified HCV NS5B RdRp enzyme assay (preincubation protocol). It counts as biochemical. As for the experimental part: HCV NS5B RdRp cloning, expression, and purification. The cDNA encoding the NS5B protein of HCV, genotype 1b, was cloned into the pET21a expression vector. The protein was expressed with an 18 amino acid C-terminal truncation to enhance the solubility. The E. coli competent cell line BL21(DE3) was used for expression of the protein. Cultures were grown at 37° C. for ˜4 hours until the cultures reached an optical density of 2.0 at 600 nm. The cultures were cooled to 20° C. and induced with 1 mM IPTG. Fresh ampicillin was added to a final concentration of 50 μg/ml and the cells were grown overnight at 20° C.
Cell pellets (3 L) were lysed for purification to yield 15-24 mgs of purified NS5B. The lysis buffer consisted of 20 mM Tris-HCl, pH 7.4, 500 mM NaCl, 0.5% triton X-100, 1 mM DTT, 1 mM EDTA, 20% glycerol, 0.5 mg/ml lysozyme, 10 mM MgCl2, 15 μg/ml deoxyribonuclease I, and Complete TM protease inhibitor tablets (Roche). After addition of the lysis buffer, frozen cell pellets were resuspended using a tissue homogenizer. To reduce the viscosity of the sample, aliquots of the lysate were sonicated on ice using a microtip attached to a Branson sonicator. The sonicated lysate was centrifuged at 100,000×g for 1 hr at 4° C. and filtered through a 0.2 μm filter unit (Corning).
The protein was purified using three sequential chromatography steps: Heparin sepharose CL-6B, polyU sepharose 4B, and Hitrap SP sepharose (Pharmacia). The chromatography buffers were identical to the lysis buffer but contained no lysozyme, deoxyribonuclease I, MgCl2 or protease inhibitor and the NaCl concentration of the buffer was adjusted according to the requirements for charging the protein onto the column. Each column was eluted with a NaCl gradient which varied in length from 5-50 column volumes depending on the column type. After the final chromatography step, the resulting purity of the enzyme is >90% based on SDS-PAGE analysis. The enzyme was aliquoted and stored at −80° C.
Standard HCV NS5B RdRp enzyme assay. HCV RdRp genotype 1b assays were run in a final volume of 60 μl in 96 well plates (Costar 3912). The assay buffer is composed of 20 mM Hepes, pH 7.5, 2.5 mM KCl, 2.5 mM MgCl2, 1 mM DTT, 1.6 U RNAse inhibitor (Promega N2515), 0.1 mg/ml BSA (Promega R3961), and 2% glycerol. All compounds were serially diluted (3-fold) in DMSO and diluted further in water such that the final concentration of DMSO in the assay was 2%. HCV RdRp genotype 1b enzyme was used at a final concentration of 28 nM. A polyA template was used at 6 nM, and a biotinylated oligo-dT12 primer was used at 180 nM final concentration. Template was obtained commercially (Amersham 27-4110). Biotinylated primer was prepared by Sigma Genosys. 3H-UTP was used at 0.6 μCi (0.29 μM total UTP). Reactions were initiated by the addition of enzyme, incubated at 30° C. for 60 min, and stopped by adding 25 μl of 50 mM EDTA containing SPA beads (4 μg/μl, Amersham RPNQ 0007). Plates were read on a Packard Top Count NXT after >1 hr incubation at room temperature.
Modified HCV NS5B RdRp enzyme assay. A modified enzyme assay was performed essentially as described for the standard enzyme assay except for the following: The biotinylated oligo dT12 primer was precaptured on streptavidin-coated SPA beads by mixing primer and beads in assay buffer and incubating at room temperature for one hour. Unbound primer was removed after centrifugation. The primer-bound beads were resuspended in 20 mM Hepes buffer, pH 7.5 and used in the assay at final concentrations of 20 nM primer and 0.67 μg/μl beads. Order of addition in the assay: enzyme (14 nM) was added to diluted compound followed by the addition of a mixture of template (0.2 nM), 3H-UTP (0.6 μCi, 0.29 μM), and primer-bound beads, to initiate the reaction; concentrations given are final. Reactions were allowed to proceed for 4 hours at 30° C.
IC50 values for compounds were determined using seven different [I]. […]

The next test has as its system HCV replicon cells. The test is described as follows: HCV replicon FRET assay. It counts as cell-based. An excerpt:
FRET Assay Preparation. To perform the HCV FRET screening assay, 96-well cell culture plates were used. The FRET peptide (Anaspec, Inc.) (Taliani et al., Anal. Biochem. 1996, 240, 60-67) contains a fluorescence donor, EDANS, near one end of the peptide and an acceptor, DABCYL, near the other end. The fluorescence of the peptide is quenched by […] resonance energy transfer (RET) between the donor and the acceptor, but as the NS3 protease cleaves the peptide the products are released from RET quenching and the fluorescence of the donor becomes apparent. The assay reagent was made as follows: 5× cell Luciferase cell culture lysis reagent from Promega (#E153A) diluted to 1× with dH2O, NaCl added to 150 mM final, the FRET peptide diluted to 20 uM final from a 2 mM stock.
To prepare plates, HCV replicon cells, with or without a Renilla luciferase reporter gene, were trypsinized and placed into each well of a 96-well plate with titrated test compounds added in columns 3 through 12; columns 1 and 2 contained a control compound (HCV protease inhibitor), and the bottom row contained cells without compound. The plates were then placed in a CO2 incubator at 37° C.
Assays. Subsequent to addition of the test compounds described above (FRET Assay Preparation), at various times the plate was removed and Alamar blue solution (Trek Diagnostics, #00-100) was added per well as a measure of cellular toxicity. After reading in a Cytoflour 4000 instrument (PE Biosystems), plates were rinsed with PBS and then used for FRET assay by the addition of 30 ul of the FRET peptide assay reagent described above (FRET Assay Preparation) per well. The plate was then placed into the Cytoflour 4000 instrument which had been set to 340 excite/490 emission, automatic mode for 20 cycles and the plate read in a kinetic mode. Typically, the signal to noise using an endpoint analysis after the reads was at least three-fold. Alternatively, after Alamar blue reading, plates were rinsed with PBS, 50 ul of DMEM (high glucose) without phenol red was added and plates were then used for luciferase assay using the Promega Dual-Glo Luciferase Assay System.
Compound analysis was determined by quantification of the relative HCV replicon inhibition and the relative cytotoxicity values. To calculate cytoxicity values, the average Alamar Blue fluorescence signals from the control wells were set as 100% non-toxic. The individual signals in each of the compound test wells were then divided by the average control signal and multiplied by 100% to determine […]. To calculate the HCV replicon inhibition values, an average background value was obtained from the two wells containing the highest amount of HCV protease inhibitor at the end of the assay period. These numbers were similar to those obtained from naive Huh-7 cells.
The background numbers were then subtracted from the average signal obtained from the control wells and this number was used as 100% activity. The individual signals in each of the compound test wells were then divided by the averaged control values after background subtraction and multiplied by 100% to determine percent activity. EC50 values for a protease inhibitor titration were calculated as the concentration which caused a 50% reduction in FRET or luciferase activity. The two numbers generated for the compound plate, percent cytoxicity and percent activity were used to determine compounds of interest for further analysis.
In general terms: In antiviral work, replicon cells carry a viral genome segment that copies itself.

What is called IC50 is the concentration at which inhibition is half-maximal. A low value points to inhibition by little substance. One may read the EC50 as the concentration at which the effect is half-maximal. In test [1], `COc1ccc2c(c1)C1CC1(C(=O)N1CC(C)(O)C1)Cn1c-2c(C2CCCCC2)c2ccc(C(=O)NS(=O)(=O)N(C)C)cc21` (stereo not shown) gave an IC50 of less than 20 nM. The molecule further displayed an EC50 with HCV replicon cells (Hepatitis C virus) of 1 to 500 nM. Molecule `COc1ccc2c(c1)C1CC1(C(=O)N1CC(O)C1)Cn1c-2c(C2CCCCC2)c2ccc(C(=O)NS(=O)(=O)N(C)C)cc21` (stereo not shown) [drawing 28] displayed an IC50 in test [1] of 1 to 500 nM. Molecule `COc1ccc2c(c1)C1CC1(C(=O)N1CC(O)(c3ccc(F)cc3)C1)Cn1c-2c(C2CCCCC2)c2ccc(C(=O)NS(=O)(=O)N(C)C)cc21` (stereo not shown) returned an IC50 in test [1] of 1 to 500 nM. The molecule further showed an EC50 in the test with HCV replicon cells (Hepatitis C virus) of 1 to 500 nM.

Consider `COc1ccc2c(c1)C1CC1(C(=O)N1CC(O)C1)Cn1c-2c(C2CCCCC2)c2ccc(C(=O)NS(=O)(=O)C3CC3)cc21` (stereo not shown) [drawing 27], for which the IC50 in test [1] lay within 1 to 500 nM.

With `COc1ccc2c(c1)C1CC1(C(=O)N1CC(O)C1)Cn1c-2c(C2CCCCC2)c2ccc(C(=O)NS(=O)(=O)C3CC3)cc21` (stereo not shown) [drawing 16], the IC50 in test [1] lay in the range of 1 to 500 nM. The EC50 in the test on HCV replicon cells (Hepatitis C virus, FRET assay, read-out: EC50) is 1 to 500 nM. In turn, `COc1ccc2c(c1)C1CC1(C(=O)N1CC(O)(C(F)(F)F)C1)Cn1c-2c(C2CCCCC2)c2ccc(C(=O)NS(=O)(=O)N(C)C)cc21` (stereo not shown) [drawing 25] showed a half-inhibitory concentration (IC50) in test [1] of 1 to 500 nM. The EC50 with HCV replicon cells (FRET assay) is 1 to 500 nM. `COc1ccc2c(c1)C1CC1(C(=O)N1CC(O)C1)Cn1c-2c(C2CCCCC2)c2ccc(C(=O)NS(=O)(=O)N(C)C)cc21` (stereo not shown) [drawing 17] came in with an IC50 in test [1] of 1 to 500 nM. In the test with HCV replicon cells (Hepatitis C virus), this molecule came in with an EC50 of 1 to 500 nM. The molecule `COc1ccc2c(c1)C1CC1(C(=O)N1CC(O)(C3CC3)C1)Cn1c-2c(C2CCCCC2)c2ccc(C(=O)NS(=O)(=O)N(C)C)cc21` (stereo not shown) [drawing 24] registered an IC50 in test [1] of 1 to 500 nM. The molecule further displayed an EC50 in the test with HCV replicon cells (FRET assay) of 1 to 500 nM.

For the molecule `COc1ccc2c(c1)C1CC1(C(=O)N1CC(O)(C(C)C)C1)Cn1c-2c(C2CCCCC2)c2ccc(C(=O)NS(=O)(=O)N(C)C)cc21` (stereo not shown), the IC50 in test [1] lay in the range of 1 to 500 nM. For the same molecule, the EC50 with HCV replicon cells (Hepatitis C virus) is 1 to 500 nM. With `COc1ccc2c(c1)C1CC1(C(=O)N1CC(O)(C3CC3)C1)Cn1c-2c(C2CCCCC2)c2ccc(C(=O)NS(=O)(=O)N(C)C)cc21` (stereo not shown) [drawing 21], the IC50 in test [1] was in the range of 1 to 500 nM. In the test with HCV replicon cells (Hepatitis C virus), this molecule showed an EC50 of 1 to 500 nM.

Molecule `COc1ccc2c(c1)C1CC1(C(=O)N1CC(O)(C(F)(F)F)C1)Cn1c-2c(C2CCCCC2)c2ccc(C(=O)NS(=O)(=O)N(C)C)cc21` (stereo not shown) [drawing 23] displayed an IC50 in test [1] of 1 to 500 nM. Moreover, the EC50 in the test on HCV replicon cells (Hepatitis C virus) lay within 1 to 500 nM. For the molecule `COc1ccc2c(c1)C1CC1(C(=O)N1CC(O)(c3ccccc3)C1)Cn1c-2c(C2CCCCC2)c2ccc(C(=O)NS(=O)(=O)N(C)C)cc21` (stereo not shown), the IC50 in test [1] lay in the range of 1 to 500 nM. The molecule also registered an EC50 in the test with HCV replicon cells (Hepatitis C virus) of 1 to 500 nM.
